In ChEMBL document CHEMBL1201862, “PubChem BioAssay data set” (2004):
Values belong to the molecule of their own block, whether it stands above or below them. Activity calls are given as the source filed them.

Assays:
[1] = target: T1, Heat shock factor protein 1 (Mus musculus, UniProt P38532); assay: inhibition of MG132-induced HSE-luciferase signal, confirmation, cell-based, NIH3T3, luminescence, dose retest (AID 2382); type: functional;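 also: NIH3T3 fibroblasts with HSF1-driven luciferase reporter stressed by proteasome inhibitor MG132; luminescence from HSF1-driven luciferase expression after 8 hours of MG132 stress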
T1 sequence (P38532 whole entry): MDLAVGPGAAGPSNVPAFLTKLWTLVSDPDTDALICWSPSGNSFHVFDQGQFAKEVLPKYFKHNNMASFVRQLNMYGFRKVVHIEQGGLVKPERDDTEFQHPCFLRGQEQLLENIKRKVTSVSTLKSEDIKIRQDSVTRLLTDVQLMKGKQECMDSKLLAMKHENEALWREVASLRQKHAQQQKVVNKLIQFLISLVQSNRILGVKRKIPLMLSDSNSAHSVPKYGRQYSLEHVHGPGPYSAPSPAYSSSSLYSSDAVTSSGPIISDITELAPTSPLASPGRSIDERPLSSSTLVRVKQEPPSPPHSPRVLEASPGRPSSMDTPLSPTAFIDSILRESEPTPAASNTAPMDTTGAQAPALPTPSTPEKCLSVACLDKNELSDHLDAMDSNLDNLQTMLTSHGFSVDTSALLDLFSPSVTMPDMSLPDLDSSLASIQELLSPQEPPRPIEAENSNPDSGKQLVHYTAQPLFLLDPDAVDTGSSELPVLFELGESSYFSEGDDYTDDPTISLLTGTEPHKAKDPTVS

Caspase-9 = Caspase-9 (Homo sapiens, UniProt P55211); assay: caspase-9 enzyme inhibition, dose response, selectivity assay for caspase-6 inhibitor project, biochemical, fluorescence, plate reader, cherry-picked samples (AID 743293)
Caspase-6 = target: T2, Caspase-6 (Homo sapiens, UniProt P55212); assay: human caspase-6 inhibitors, dose response, biochemical, VEID-R110 fluorescence, cherry-pick (AID 720632)
T2 sequence (P55212 whole entry): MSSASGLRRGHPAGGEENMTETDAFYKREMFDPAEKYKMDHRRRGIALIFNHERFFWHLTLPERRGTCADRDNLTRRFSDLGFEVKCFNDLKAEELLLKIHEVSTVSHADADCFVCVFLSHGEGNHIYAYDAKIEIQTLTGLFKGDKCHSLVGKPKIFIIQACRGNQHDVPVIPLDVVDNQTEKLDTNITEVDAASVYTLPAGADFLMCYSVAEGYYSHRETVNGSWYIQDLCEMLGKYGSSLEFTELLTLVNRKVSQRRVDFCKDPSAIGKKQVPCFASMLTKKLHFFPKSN

[2] = target: T3, Apoptotic protease-activating factor 1 (Homo sapiens, UniProt O14727); type: functional
T3 sequence (O14727 whole entry): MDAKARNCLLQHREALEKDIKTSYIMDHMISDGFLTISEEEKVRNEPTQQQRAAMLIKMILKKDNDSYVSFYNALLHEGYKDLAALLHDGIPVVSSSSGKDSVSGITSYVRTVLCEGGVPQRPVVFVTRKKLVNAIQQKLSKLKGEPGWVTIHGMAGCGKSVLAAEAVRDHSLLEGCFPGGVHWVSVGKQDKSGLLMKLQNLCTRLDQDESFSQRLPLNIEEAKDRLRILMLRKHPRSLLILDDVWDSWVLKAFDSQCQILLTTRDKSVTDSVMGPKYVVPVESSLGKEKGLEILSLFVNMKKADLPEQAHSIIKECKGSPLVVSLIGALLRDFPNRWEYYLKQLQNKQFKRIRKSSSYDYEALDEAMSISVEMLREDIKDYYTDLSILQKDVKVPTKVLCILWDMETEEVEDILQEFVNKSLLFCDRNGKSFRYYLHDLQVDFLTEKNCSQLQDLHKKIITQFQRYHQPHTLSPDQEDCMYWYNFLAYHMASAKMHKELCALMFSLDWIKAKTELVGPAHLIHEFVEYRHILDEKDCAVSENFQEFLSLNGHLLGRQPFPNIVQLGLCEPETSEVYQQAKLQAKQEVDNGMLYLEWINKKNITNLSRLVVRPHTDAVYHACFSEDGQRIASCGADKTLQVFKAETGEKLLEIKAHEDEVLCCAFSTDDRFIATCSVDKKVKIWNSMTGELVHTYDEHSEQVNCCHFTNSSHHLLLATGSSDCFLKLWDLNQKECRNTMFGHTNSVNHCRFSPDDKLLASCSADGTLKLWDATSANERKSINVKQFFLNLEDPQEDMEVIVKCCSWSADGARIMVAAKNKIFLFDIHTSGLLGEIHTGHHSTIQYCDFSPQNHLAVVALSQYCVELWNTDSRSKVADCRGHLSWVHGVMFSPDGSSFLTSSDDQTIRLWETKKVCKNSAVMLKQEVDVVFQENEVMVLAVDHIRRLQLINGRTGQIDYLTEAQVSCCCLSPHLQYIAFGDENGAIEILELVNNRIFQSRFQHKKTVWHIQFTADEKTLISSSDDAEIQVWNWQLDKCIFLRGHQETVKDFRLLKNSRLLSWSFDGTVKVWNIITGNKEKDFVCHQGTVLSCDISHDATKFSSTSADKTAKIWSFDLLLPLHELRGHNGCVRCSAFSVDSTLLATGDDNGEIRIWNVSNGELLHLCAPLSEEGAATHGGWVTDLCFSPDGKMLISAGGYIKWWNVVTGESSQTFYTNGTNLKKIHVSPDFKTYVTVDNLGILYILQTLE

Caspase-9, sequence (P55211 1-315 limits assumed): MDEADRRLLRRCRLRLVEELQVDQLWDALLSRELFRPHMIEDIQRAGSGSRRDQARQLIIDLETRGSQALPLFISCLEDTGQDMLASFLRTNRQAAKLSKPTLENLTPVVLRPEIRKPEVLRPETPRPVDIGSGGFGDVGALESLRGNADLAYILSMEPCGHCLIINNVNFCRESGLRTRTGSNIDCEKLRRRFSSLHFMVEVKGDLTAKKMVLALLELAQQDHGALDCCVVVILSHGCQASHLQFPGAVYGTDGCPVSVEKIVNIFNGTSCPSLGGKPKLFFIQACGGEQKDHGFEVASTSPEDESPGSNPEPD
Caspase-9, sequence (P55211 331-416 limits assumed): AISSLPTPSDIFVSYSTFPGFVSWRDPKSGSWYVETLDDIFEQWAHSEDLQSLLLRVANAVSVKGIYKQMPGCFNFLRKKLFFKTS

Compound: SC1=Nc2ccccc2C1
- EC50 [1]: 0.79 µM (active)

- AC50 (Caspase-9): 22.8 µM (active)
- AC50 (Caspase-6): 3.33 µM (active)
Compound: NS(=O)(=O)c1ccc(NC(=O)COC(=O)c2ccc([N+](=O)[O-])s2)cc1

- IC50 [2]: 3.62 µM (active)
Compound: CCCCNc1cc(NC(C)=O)cc2cc(OC)c(OC)cc12
